# Results taken from paper PMC7860073 (ACS Omega, 2021).
# Target: sialidase-1 (Homo sapiens, UniProt Q99519)
# Experiment: microscale thermophoresis
# Assay type: binding
row,Kd [µM],Structure (SMILES)
1,2.15,COc1cnc(NS(=O)(=O)c2ccc(N)cc2)nc1 [sulfameter]
2,8.88,COc1ccc(C(=O)c2ccc(C)cc2)c(O)c1 [mexenone]
